Structures are written as SMILES.

This data set can be described thus: gradient 5% acetonitrile 3 min, to 50% in 2 min, to 85% in 15 min, held 3 min, 100 µL/min. The note with it: column: Zorbax Extend-C18 2.1 x 50 mm; eluents: water / acetonitrile, 0.1% formic acid. In outline:
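Using water and acetonitrile that each contained 0.1% formic acid, mixtures of ~100 pure standards were separated at 100 μL/min on a Zorbax Extend-C18 column (2.1 × 50 mm, 1.8 μm). The HPLC fed a quadrupole time-of-flight mass spectrometer working in positive and negative ionization mode, with dead and dwell volumes of 40 μL and 900 μL. Data were acquired over 3 months. Retention time was read from computationally picked adduct peaks after manual inspection of each.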
Consider `O=C1CC(c2noc(-c3cc(Cl)ccc3F)n2)CN1c1ccc(F)cc1` (centres undefined), for which the RP-LC retention time was 1100 s.
Consider `Cc1cc2nn(CC(=O)NC3CCCCC3)c(=O)n2c(Nc2ccc(F)cc2)n1`, for which the RP-LC retention time amounted to 909 s.
Compound `C#CCOCC1CCCN(S(=O)(=O)c2cc(C)c(Cl)cc2Cl)C1` (centres undefined) had an RP-LC retention time of 1130 s.
Regarding `Cc1[nH]nc(-c2c(C)sc(C)c2S(=O)(=O)Nc2ccc(F)c(Cl)c2)c1C`, the RP-LC retention time turned out to be 1140 s.
For `CC(C)c1ccc(S(=O)(=O)N2C[C@@H](F)C[C@H]2C(=O)N2CCc3ccccc3C2)cc1`, the RP-LC retention time was found to be 1060 s.
`O=C(CN1C(=O)c2ccccc2C1=O)Nc1nnc(C2COc3ccccc3O2)o1` (centres undefined) registered an RP-LC retention time of 714 s.
In turn, `Cn1cnc([N+](=O)[O-])c1Sc1n[nH]c(N)n1` had an RP-LC retention time of 599 s.
`Cc1ccc(C)c(Cn2nc3c(S(=O)(=O)N4CCCCCC4)cccn3c2=O)c1` returned an RP-LC retention time of 1050 s.
`CO[C@H]1C(=O)N(C(C)C)[C@H]1C1CCN(C(=O)c2cnccn2)CC1` came in with an RP-LC retention time of 621 s.
The result for `CCN(CC)CCCNC(=O)c1cccn1-c1nnc(N2CCCC2)s1` reads 562 s; that for `O=C(Nc1ccc2c(c1)CN(S(=O)(=O)c1ccccc1)CC2)NC1CCCCC1`, 901 s.
Compound `COc1cccc2c(Nc3ccc(S(N)(=O)=O)cc3)cc(C(=O)N3CCSCC3)nc12` had an RP-LC retention time of 595 s.
`CCC(C(=O)Nc1c(-c2ccc(F)cc2)nc2cc(C)ccn12)c1ccccc1` (centres undefined) came in with an RP-LC retention time of 745 s.
The compound `Cc1ccc(-c2nnc(C)c(NCc3ccc4c(c3)OCO4)n2)cc1` had an RP-LC retention time of 730 s.
As for `CCn1cc(S(=O)(=O)N2CCOc3ccc(NC(=O)C4CC4)cc3C2)cn1`, the RP-LC retention time stood at 734 s.
The same measure for `COc1ccc(Cl)cc1NC(=O)Cn1c(=O)n(-c2ccc(C)cc2)c(=O)c2c1cc(C)n2C`: 984 s; for `Cc1nc(C2CC23CCN(S(=O)(=O)c2cccc(F)c2)CC3)no1` (centres undefined): 888 s; for `CCC(=O)N1CCc2c(C(=O)NC(C)C)cccc21`: 687 s.
As to `CCc1noc(-c2ccnc(-n3cnc(C(=O)Nc4ccc(F)cc4C)c3)c2)n1`, the RP-LC retention time came to 990 s.
The same measure for `O=C(NCCC1=CCCCC1)C1CCCN(c2ccnc(-c3ccc(F)cc3)n2)C1` (centres undefined): 752 s; for `Cc1cc2c(cc1S(=O)(=O)N1CCCC1C(=O)NC1CCCCCC1)OC(C)C(=O)N2` (centres undefined): 834 s; for `COc1ccccc1/C=C1\Cc2ccccc2C1=O`: 1140 s.
Take `O=C(CCSc1nnnn1-c1ccccc1)Nc1ccc2c(c1)OCO2`: the RP-LC retention time was found to be 794 s.
Take `CC(Oc1ccccc1)C(=O)NCc1nnnn1-c1ccc(Cl)cc1` (centres undefined): the RP-LC retention time was 824 s.
In the case of `CCN1C(=O)c2cccc3c(S(=O)(=O)Nc4cccc(C)n4)ccc1c23`, the RP-LC retention time was 635 s.
The same measure for `CC(=O)Oc1cc2c(C(=O)NCC3CCCO3)c(C)oc2c2ccccc12` (centres undefined): 809 s; for `O=C1[C@H]2CN(Cc3ccccc3Cl)C[C@H]2C(=O)N1CCN1CCc2ccccc2C1`: 661 s; for `CCCC(=O)N1CCC2(CC1)C(=O)N(C)c1ccccc12`: 764 s.
`Cc1cc(C)n(CCNC(=O)c2nc3ccccc3s2)n1`: the RP-LC retention time worked out at 708 s.
Turning to `Cc1cc(Cl)ccc1OCC(=O)Nc1ccc2c(c1)Sc1ncccc1C(=O)N2C`, the RP-LC retention time came to 911 s.
The result for `CCc1cc(=O)n(CC(=O)Nc2ccc(Cl)c(Cl)c2)c(-n2nc(C)cc2C)n1` reads 1060 s; that for `Cc1ccc(N2CCC(NC(=O)Cc3ccc(Cl)cc3)C2=O)cc1C` (centres undefined), 946 s.
`CC12C=CC(=O)C=C1CCC1C2=CCC2(C)C1CC[C@@H]2C(=O)CN1CCN(c2cc(N3CCCC3)nc(N3CCCC3)n2)CC1` (some centres undefined): the RP-LC retention time stood at 732 s.
`CCOC(=O)c1sc2ccccc2c1S(=O)(=O)N1CCN(c2ccccn2)CC1` came in with an RP-LC retention time of 794 s.
The compound `O=C(CN1C(=O)CCCc2cc(S(=O)(=O)N3CCCC3)ccc21)N1CCc2ccccc2C1` yielded an RP-LC retention time of 838 s.
The result for `Cc1cccc(-c2[nH]ncc2-c2ccc3ncccc3n2)n1` reads 635 s; that for `CN(C)C[C@@H]1CN(S(C)(=O)=O)C[C@H]1NC(=O)COc1ccc(Cl)cc1`, 629 s; that for `Cc1cccc(-c2nnc(CC(=O)NC3CCCC3)o2)c1`, 658 s.
Consider `COc1ccc(OC)c(CNC(=O)c2ccc3[nH]c4c(c3c2)CN(C(C)=O)CC4)c1`, for which the RP-LC retention time came out at 680 s.
On to `c1cnn(-c2ccc(-c3noc(-c4ccc5c(c4)OCO5)n3)cn2)c1`, for which the RP-LC retention time was determined as 1170 s.
Consider `O=C(NCCCN1CCCC1)C1CN(C(=O)c2ccccc2)CC12CCCCC2` (centres undefined), for which the RP-LC retention time came to 611 s.
`Cc1cc(=O)n(CC(=O)Nc2cc(F)ccc2C)c(N)n1`: the RP-LC retention time came to 608 s.
The result for `Cc1nc(-c2ccc3c(c2)n(CC(=O)N2CCC4(CC2)OCCO4)c(=O)n3C(C)C)no1` reads 720 s; that for `O=C1NCCCCCCN(C(=O)Nc2ccccc2F)[C@H]2CCC[C@@H]12`, 805 s.
In the case of `COc1cc(NC(=O)NC(C(=O)N2CCc3ccccc32)C(C)C)cc(OC)c1` (centres undefined), the RP-LC retention time turned out to be 982 s.
The same measure for `O=C([C@@H]1C[C@H](F)CN1C(=O)Nc1ccc(C(F)(F)F)cc1)N1CCCCC1`: 821 s.
In turn, `COc1ccc(C(=O)Nc2ccc3c(c2)Sc2ncccc2C(=O)N3C(C)C)cc1` yielded an RP-LC retention time of 860 s.
For the compound `COc1cc(-c2nc3ncccn3c2NC2CCCC2)cc(OC)c1OC`, the RP-LC retention time was 705 s.
In turn, `Cn1nc(-c2nnc(-c3ccccc3F)o2)c2c1CCN(S(=O)(=O)c1ccc3c(c1)CCCC3)C2` had an RP-LC retention time of 1090 s.
In the case of `CSc1ccc(-c2nc3cnccn3c2Nc2cccc(C(N)=O)c2)cc1`, the RP-LC retention time was 684 s.
`Cn1nnc2ccc(-c3noc(-c4cc(F)ccc4Cl)n3)cc21` gave an RP-LC retention time of 1060 s.
For the compound `O=C(NCc1cccc(Cl)c1)C1CCCN(c2nc3ccsc3c(=O)n2Cc2ccccc2)C1` (centres undefined), the RP-LC retention time came out at 988 s.
As to `O=C1CCCC2=C1C(c1ccco1)N(C(=O)CCC(=O)N1CCOCC1)c1ccccc1N2` (centres undefined), the RP-LC retention time was 648 s.
In turn, `Cc1c(C(=O)N2CCC(C(=O)NC3CCN(Cc4ccccc4)CC3)CC2)sc2nc[nH]c(=O)c12` returned an RP-LC retention time of 568 s.
The compound `c1ccc(CNc2nc(-c3ccccc3)no2)cc1` displayed an RP-LC retention time of 975 s.
As to `CCOC(=O)c1nc(Nc2cc(C)c(Cl)cc2OC)c2ccccc2n1`, the RP-LC retention time is 1130 s.
As to `Cc1cccc(-c2noc(CSc3nc4cc5c(cc4c(=O)n3CC3CCCO3)OCO5)n2)c1` (centres undefined), the RP-LC retention time was found to be 1170 s.
Regarding `O=S(=O)(c1ccc(-n2cnnn2)cc1)N1CCN(c2ccccn2)CC1`, the RP-LC retention time turned out to be 596 s.
For `CCC(=O)N1c2ccccc2CC1c1nc(C(C)C)no1` (centres undefined), the RP-LC retention time worked out at 913 s.
Take `O=C(NCc1ccccn1)c1nnc(-c2ccc(S(=O)(=O)N3CCCCC3)cc2)o1`: the RP-LC retention time was determined as 732 s.
`Cc1ccccc1OCC(=O)Nc1nc(-c2ccccc2Cl)cs1` had an RP-LC retention time of 1210 s.
On to `COc1ccc(NC(=O)c2nnc(CSCC(=O)NCCc3c[nH]c4ccccc34)s2)cc1`, for which the RP-LC retention time came to 859 s.
The result for `CCn1ccc2sc(C)c(C(=O)NCc3ccc(Br)cc3)c2c1=O` reads 911 s; that for `Cc1c(C(=O)O)nnn1Cc1cccc(C(F)(F)F)c1`, 744 s.
The compound `CCOc1ccc(-c2[nH]ncc2CNS(=O)(=O)Cc2ccc(Cl)cc2)cc1` had an RP-LC retention time of 861 s.
For `Cc1ccc(S(=O)(=O)N2CCC(n3cnnc3C(C)C)CC2)cc1F`, the RP-LC retention time came to 756 s.
In turn, `CCOC(=O)c1cnc2nc(C)ccc2c1Nc1ccc(F)cc1Cl` registered an RP-LC retention time of 742 s.
`Cc1cccc(C2CCCN2C(=O)c2c(Br)cnn2C)c1` (centres undefined) came in with an RP-LC retention time of 908 s.
`Cc1scc2nc(C(=O)Nc3cccc(F)c3)nc(N3CCCC3)c12`: the RP-LC retention time came to 567 s.
`Cc1sc(-c2noc(C(C)C)n2)cc1S(=O)(=O)N1CCC(C(=O)Nc2cccc(C#N)c2)CC1` registered an RP-LC retention time of 1090 s.
The same measure for `CC1CCCN(c2ccc(-c3noc(CN4CCN(CC(=O)NC(C)C)CC4)n3)cn2)C1` (centres undefined): 635 s; for `Cc1oc(-c2[nH]ncc2C(=O)N2CCCC2)cc1S(=O)(=O)NCc1ccco1`: 651 s.
`CCCNC(=O)CN1CCN(Cc2ccc(F)cc2)C1=O` came in with an RP-LC retention time of 688 s.
The compound `C=CCN1C[C@@H](C)N([C@H](c2ccc(C(=O)N(CC)CC)cc2)c2cccc(OC)c2)C[C@@H]1C` displayed an RP-LC retention time of 770 s.
On to `CCOc1cc(=O)n2c(c1C(=O)Nc1ccc(Cl)cc1F)CCCC2`, for which the RP-LC retention time was 806 s.
`CCCNC(=O)C1CCCN(c2ccc(SCC(=O)Nc3cccc(CC)c3)nn2)C1` (centres undefined) displayed an RP-LC retention time of 733 s.
`Cc1nn(C(C)C(=O)NCCc2ccco2)c(=O)c2nn(-c3ccccc3)c(C)c12` (centres undefined) had an RP-LC retention time of 788 s.
On to `O=C(C1CCCN(c2cnc3nccnc3c2)C1)N1CCC(N2CCCCC2)CC1` (centres undefined), for which the RP-LC retention time is 557 s.
`CC(C)c1ccc(S(=O)(=O)N(CC(=O)N2CCNCC2)CC2CCCO2)cc1` (centres undefined) returned an RP-LC retention time of 602 s.
